In patent US9096524B2, “Anthelmintic agents and their use” (Intervet International B.V., priority 2009, dated 2015):

Each compound was assayed on A. galli (intestinal roundworm of chicken) larval stage 3; O. dentatum (nodular worm of swine) larval stages 3 and 4 (assay: Activity against Ascaridia galli and Oesophagostomum dentatum larvae in vitro (minimum effective concentration)). Settings: in vitro; one or more of A. galli L3, O. dentatum L3, L4; threshold 1 μM; read-out: MEC (minimum effective concentration) against one or more of the tested nematodes.
Assay type: cell-based

Compound | minimal effective concentration [µM]
CCOc1ccc(N2CCC(OCC(=S)N3CCC(Nc4ccc([N+](=O)[O-])c(C(F)(F)F)c4)CC3)CC2)cc1 [Example 694] | < 1
O=[N+]([O-])c1ccc(OC2CCN(C(=S)CCN3CCC(OCc4ccc(C(F)(F)F)cc4)CC3)CC2)cc1C(F)(F)F [Example 695] | < 1
O=[N+]([O-])c1ccc(OC2CCN(C(=S)CCN3CCC(c4ccc(C(F)(F)F)cc4)CC3)CC2)cc1C(F)(F)F [Example 697] | < 1
O=C(CCCN1CC2CN(c3ccc(C(F)(F)F)cc3)CC2C1)N1CCC(Nc2ccc([N+](=O)[O-])c(C(F)(F)F)c2)CC1 (centres unmarked) [Example 715] | < 1
O=C(CCCN1CC2CN(c3ccc(Cl)cc3)CC2C1)N1CCC(Nc2ccc([N+](=O)[O-])c(C(F)(F)F)c2)CC1 (centres unmarked) [Example 716] | < 1
O=C(CCN1CCN(c2nnc(C(F)(F)F)s2)CC1)N1CC[C@H](Nc2ccc([N+](=O)[O-])c(C(F)(F)F)c2)C1 [Example 720] | < 1
O=C(CCCN1CCN(c2ccc(C(F)(F)F)cc2)CC1)N1CC[C@H](Nc2ccc([N+](=O)[O-])c(C(F)(F)F)c2)C1 [Example 730] | < 1
O=C(CCCN1CCN(c2ccc(Cl)cc2)CC1)N1CC[C@H](Nc2ccc([N+](=O)[O-])c(C(F)(F)F)c2)C1 [Example 731] | < 1
O=C(CCCC1CCN(c2ccc(C(F)(F)F)cc2)CC1)N1CC[C@H](Nc2ccc([N+](=O)[O-])c(C(F)(F)F)c2)C1 [Example 733] | < 1
COc1ccc(N2CCN(CCCC(=O)N3CC[C@H](Nc4ccc([N+](=O)[O-])c(C(F)(F)F)c4)C3)CC2)cn1 [Example 746] | < 1
O=C(CCCN1CCN(c2nnc(C(F)(F)F)s2)CC1)N1CC[C@H](Nc2ccc([N+](=O)[O-])c(C(F)(F)F)c2)C1 [Example 749] | < 1
O=C(CCCC1CCN(c2ccc(Cl)cc2)CC1)N1CC[C@@H](Nc2ccc([N+](=O)[O-])c(C(F)(F)F)c2)C1 [Example 774] | < 1
O=C(CCC1CCN(c2ccc(C(F)(F)F)cc2)CC1)N1CC[C@@H](Nc2ccc([N+](=O)[O-])c(C(F)(F)F)c2)C1 [Example 775] | < 1
O=C(CCCN1CCCN(c2ccc(Cl)cc2)CC1)N1CC[C@@H](Nc2ccc([N+](=O)[O-])c(C(F)(F)F)c2)C1 [Example 777] | < 1
CC(C)(C)c1ccc(N2CCCN(CCCC(=O)N3CC[C@@H](Nc4ccc([N+](=O)[O-])c(C(F)(F)F)c4)C3)CC2)cc1 [Example 778] | < 1
O=C(CCCN1CCN(c2nnc(C(F)(F)F)s2)CC1)N1CC[C@@H](Nc2ccc([N+](=O)[O-])c(C(F)(F)F)c2)C1 [Example 784] | < 1
CC(CN1CCN(c2ccc(C(C)(C)C)cc2)CC1)C(=O)N1CC[C@@H](Nc2ccc([N+](=O)[O-])c(C(F)(F)F)c2)C1 (some centres unmarked) [Example 787] | < 1
O=C(CCN1CCN(c2ccc(Cl)cc2)CC1)N1CC[C@@H](Nc2ccc([N+](=O)[O-])c(C(F)(F)F)c2)C1 [Example 789] | < 1
CC(C)(C)c1ccc(N2CCN(CCC(=O)N3CC[C@@H](Nc4ccc([N+](=O)[O-])c(C(F)(F)F)c4)C3)CC2)cc1 [Example 790] | < 1
O=C(CCCN1CCN(c2ccc(Cl)cc2)CC1)N1CC[C@@H](Nc2ccc([N+](=O)[O-])c(C(F)(F)F)c2)C1 [Example 792] | < 1
O=C(CCN1CCN(c2ccc(Cl)cn2)CC1)N1CC[C@@H](Nc2ccc([N+](=O)[O-])c(C(F)(F)F)c2)C1 [Example 795] | < 1
O=C(CCN1CCCN(c2ccc(Cl)cc2)CC1)N1CC[C@@H](Nc2ccc([N+](=O)[O-])c(C(F)(F)F)c2)C1 [Example 799] | < 1
N#Cc1ccc(N2CCCN(C(=O)CCCN3CCN(c4ccc(C(F)(F)F)cc4)CC3)CC2)cc1C(F)(F)F [Example 1008] | < 1
CC(C)(C)c1ccc(N2CCN(CCCC(=O)N3CCCN(c4ccc(C#N)c(C(F)(F)F)c4)CC3)CC2)cc1 [Example 1010] | < 1
O=C(CCCN1CCN(c2ccc(C(F)(F)F)cc2)CC1)N1CCCN(c2ccc(C(F)(F)F)cn2)CC1 [Example 1014] | < 1
O=C(CCN1CCN(c2ccc(C(F)(F)F)cc2)CC1)N1CCCN(c2ccc(SC(F)(F)F)cc2)CC1 [Example 1017] | < 1
CC(C)(C)c1ccc(N2CCN(CCC(=O)N3CCCN(c4ccc(SC(F)(F)F)cc4)CC3)CC2)cc1 [Example 1019] | < 1
COc1ccc(N2CCN(CCC(=O)N3CCCN(c4ccc(SC(F)(F)F)cc4)CC3)CC2)cc1 [Example 1020] | < 1
O=C(CCCN1CCN(c2ccc(C(F)(F)F)cc2)CC1)N1CCCN(c2ccc(SC(F)(F)F)cc2)CC1 [Example 1027] | < 1
O=C(CCCN1CCN(c2ccc(Cl)cc2)CC1)N1CCCN(c2ccc(SC(F)(F)F)cc2)CC1 [Example 1028] | < 1

Same assay, conditions: in vitro; one or more of A. galli L3, O. dentatum L3, L4; threshold 7 μM; read-out: MEC (minimum effective concentration) against one or more of the tested nematodes

Compound | minimal effective concentration [µM]
O=C(CCCC1CCN(c2ccc(C(F)(F)F)cc2)CC1)N1CC[C@H](Nc2ccc([N+](=O)[O-])c(C(F)(F)F)c2)C1 [Example 733] | < 7
O=C(CCCC1CCN(c2ccc(Cl)cc2)CC1)N1CC[C@H](Nc2ccc([N+](=O)[O-])c(C(F)(F)F)c2)C1 [Example 734] | < 7
O=C(CCCN1CC2CN(c3ccc(C(F)(F)F)cc3)CC2C1)N1CC[C@H](Nc2ccc([N+](=O)[O-])c(C(F)(F)F)c2)C1 (some centres unmarked) [Example 743] | < 7
O=C(CCN1CCN(c2ccc(C(F)(F)F)cc2)CC1)N1CCCN(c2ccc([N+](=O)[O-])c(C(F)(F)F)c2)CC1 [Example 997] | < 7
CC(C)(C)c1ccc(N2CCN(CCC(=O)N3CCCN(c4ccc([N+](=O)[O-])c(C(F)(F)F)c4)CC3)CC2)cc1 [Example 998] | < 7
O=C(CCCN1CCN(c2ccc(C(F)(F)F)cc2)CC1)N1CCCN(c2ccc([N+](=O)[O-])c(C(F)(F)F)c2)CC1 [Example 1001] | < 7
CC(C)(C)c1ccc(N2CCN(CCCC(=O)N3CCCN(c4ccc([N+](=O)[O-])c(C(F)(F)F)c4)CC3)CC2)cc1 [Example 1003] | < 7

Same assay, conditions: in vitro; two or more of A. galli L3, O. dentatum L3, L4; threshold 1 μM; read-out: MEC (minimum effective concentration) against two or more of the tested nematodes

Compound | minimal effective concentration [µM]
N#Cc1ccc(N2CCC(NC(=S)CCCN3CCN(c4ccc(C(F)(F)F)cc4)CC3)CC2)cc1C(F)(F)F [Example 662] | < 1
O=[N+]([O-])c1ccc(NC2CCN(C(=S)CCN3CCN(C(=S)c4ccc(C(F)(F)F)cc4)CC3)CC2)cc1C(F)(F)F [Example 667] | < 1
CC(CN1CCN(c2ccc(Cl)cc2)CC1)C(=S)N1CCC(Nc2ccc(C#N)c(C(F)(F)F)c2)CC1 (centres unmarked) [Example 668] | < 1
COc1cc(NC2CCN(C(=S)CCN3CCN(c4ccc(OCc5ccccc5)cc4)CC3)CC2)ccc1[N+](=O)[O-] [Example 675] | < 1
CN(CC1CCN(c2ccc(Cl)cc2)CC1)C(=S)N1CCC(Nc2ccc([N+](=O)[O-])c(C(F)(F)F)c2)CC1 [Example 676] | < 1
O=[N+]([O-])c1ccc(NC2CCN(C(=S)CCN3CCN(c4ccc(OCc5ccccc5)cc4)CC3)CC2)cc1C(F)(F)F [Example 678] | < 1
O=[N+]([O-])c1ccc(OC2CCN(C(=S)CCN3CCC(OCc4ccc(C(F)(F)F)cc4)CC3)CC2)cc1C(F)(F)F [Example 695] | < 1
O=[N+]([O-])c1ccc(OC2CCN(C(=S)CCN3CCC(c4ccc(C(F)(F)F)cc4)CC3)CC2)cc1C(F)(F)F [Example 697] | < 1
CN(C)S(=O)(=O)c1ccc(NC2CCN(C(=S)CCCN3CCN(c4ccc(C(F)(F)F)cc4)CC3)CC2)cc1C(F)(F)F [Example 699] | < 1
FC(F)(F)Oc1ccc(NC2CCN(C(=S)CCCN3CCN(c4ccc(C(F)(F)F)cc4)CC3)CC2)cc1 [Example 701] | < 1
O=C(CCCN1CC2CN(c3ccc(C(F)(F)F)cc3)CC2C1)N1CCC(Nc2ccc([N+](=O)[O-])c(C(F)(F)F)c2)CC1 (centres unmarked) [Example 715] | < 1
O=C(CCCN1CC2CN(c3ccc(Cl)cc3)CC2C1)N1CCC(Nc2ccc([N+](=O)[O-])c(C(F)(F)F)c2)CC1 (centres unmarked) [Example 716] | < 1
O=C(CCN1CCCN(c2ccc(C(F)(F)F)cc2)CC1)N1CC[C@H](Nc2ccc([N+](=O)[O-])c(C(F)(F)F)c2)C1 [Example 725] | < 1
O=C(CCCN1CCN(c2ccc(C(F)(F)F)cc2)CC1)N1CC[C@H](Nc2ccc([N+](=O)[O-])c(C(F)(F)F)c2)C1 [Example 730] | < 1
N#Cc1ccc(NC2CCN(C(=O)CCCN3CCC(Nc4ccc(Cl)cc4)CC3)CC2)cc1C(F)(F)F [Example 759] | < 1
O=C(CCCC1CCN(c2ccc(Cl)cc2)CC1)N1CC[C@@H](Nc2ccc([N+](=O)[O-])c(C(F)(F)F)c2)C1 [Example 774] | < 1
CC(C)(C)c1ccc(N2CCCN(CCCC(=O)N3CC[C@@H](Nc4ccc([N+](=O)[O-])c(C(F)(F)F)c4)C3)CC2)cc1 [Example 778] | < 1
O=C(CCN1CCN(c2ccc(Cl)cc2)CC1)N1CC[C@@H](Nc2ccc([N+](=O)[O-])c(C(F)(F)F)c2)C1 [Example 789] | < 1
O=C(CCCN1CCN(c2ccc(C(F)(F)F)cc2)CC1)N1CCN(c2ccc(SC(F)(F)F)cc2)CC1 [Example 1033] | < 1

Same assay, conditions: read-out: MEC (minimum effective concentration) against two or more of the tested nematodes, in vitro; two or more of A. galli L3, O. dentatum L3, L4; threshold 1 μM

Compound | minimal effective concentration [µM]
CC(CN1CCN(c2ccc(Cl)cc2)CC1)C(=O)N1CC[C@@H](Nc2ccc([N+](=O)[O-])c(C(F)(F)F)c2)C1 (some centres unmarked) [Example 752] | < 1
N#Cc1ccc(NC2CCN(C(=O)CCCC3CCN(c4ccc(Cl)cc4)CC3)CC2)cc1C(F)(F)F [Example 754] | < 1
N#Cc1ccc(NC2CCN(C(=O)CCCN3CCCN(c4ccc(Cl)cc4)CC3)CC2)cc1C(F)(F)F [Example 757] | < 1
COc1ccc(N2CCN(CCCC(=O)N3CCC(Nc4ccc(C#N)c(C(F)(F)F)c4)CC3)CC2)cn1 [Example 760] | < 1
N#Cc1ccc(NC2CCN(C(=O)CCN3CCN(c4ccc(Cl)cn4)CC3)CC2)cc1C(F)(F)F [Example 764] | < 1
N#Cc1ccc(NC2CCN(C(=O)CCN3CCCN(c4ccc(Cl)cc4)CC3)CC2)cc1C(F)(F)F [Example 770] | < 1
